Test results taken from PMC7028757 (2020).

Assays:
[1] = tested on: Oxytricha Nova G-quadruplex d(GGGGTTTTGGGG) (DNA, G4) GGGGTTTTGGGG; experiment: UV melting, 260 nm; conditions: 100 mM NaCl; 10 mM sodium cacodylate, 0.5 mM EDTA, pH 7.0; 5 μM quadruplex, ligand 1:1
[2] = tested on: Oxytricha Nova G-quadruplex d(GGGGTTTTGGGG) (DNA, G4) GGGGTTTTGGGG; experiment: FID; conditions: 100 mM NaCl; 10 mM sodium cacodylate, 0.5 mM EDTA, pH 7.0, 20°C; thiazole orange 0.50 μM displaced
[3] = tested on: d(AGGGGTTTTCCCCT) hairpin duplex (DNA, hairpin) AGGGGTTTTCCCCT; experiment: FID; conditions: 100 mM NaCl; 10 mM sodium cacodylate, 0.5 mM EDTA, pH 7.0, 20°C; thiazole orange 0.50 μM displaced
[4] = tested on: Oxytricha Nova G-quadruplex d(GGGGTTTTGGGG) (DNA, G4) GGGGTTTTGGGG; experiment: fluorescence titration; conditions: 100 mM NaCl; 10 mM sodium cacodylate, 0.5 mM EDTA, pH 7.0, 20°C

Row | Compound | ΔTm [1] [°C] | DC50 [2] [µM] | DC50 [3] [µM] | binding [4]
1 | NC[C@@H]1O[C@H](O[C@H]2[C@@H](O)[C@H](O[C@@H]3[C@@H](O)[C@H](N)C[C@H](N)[C@H]3O[C@H]3O[C@H](CN)[C@@H](O)[C@H](O)[C@H]3N)O[C@@H]2CSCCNC(=O)CCCc2ccc3ccc4cccc5ccc2c3c45)[C@H](N)[C@@H](O)[C@@H]1O | 1.9 | 4.73 | 2.61 | –
2 | CN1C(=Cc2cc[n+](C)c3ccccc23)Sc2ccccc21 | – | – | – | yes
3 | NC[C@@H]1O[C@H](O[C@H]2[C@@H](O)[C@H](O[C@@H]3[C@@H](O)[C@H](N)C[C@H](N)[C@H]3O[C@H]3O[C@H](CN)[C@@H](O)[C@H](O)[C@H]3N)O[C@@H]2CO)[C@H](N)[C@@H](O)[C@@H]1O | 0.0 | 76.02 | 53.44 | –

Continued, values first:

Row | ΔTm [1] [°C] | DC50 [2] [µM] | DC50 [3] [µM] | binding [4] | Compound
4 | 0.6 | 7.89 | 0.83 | – | CN(C)CCN1C(=O)c2ccc3c4c(ccc(c24)C1=O)C(=O)N(CCCNC(=O)NCCSC[C@H]1O[C@@H](O[C@@H]2[C@@H](O)[C@H](N)C[C@H](N)[C@H]2O[C@H]2O[C@H](CN)[C@@H](O)[C@H](O)[C@H]2N)[C@H](O)[C@@H]1O[C@H]1O[C@@H](CN)[C@@H](O)[C@H](O)[C@H]1N)C3=O
5 | 0.5 | 0.30 | 0.75 | – | NC[C@@H]1O[C@H](O[C@H]2[C@@H](O)[C@H](O[C@@H]3[C@@H](O)[C@H](N)C[C@H](N)[C@H]3O[C@H]3O[C@H](CN)[C@@H](O)[C@H](O)[C@H]3N)O[C@@H]2CSCCNC(=O)NCCCNC(=O)c2ccc3c(c2)C(=O)c2ccccc2C3=O)[C@H](N)[C@@H](O)[C@@H]1O
